Measured values from PMC7377474, “Preclinical characterization of CPL302-253, a selective inhibitor of PI3Kδ, as the candidate for the inhalatory treatment and prevention of Asthma” (PLoS ONE, 2020).
Several values for one entry are separate records, joined by “and”; a condition that tells them apart may be missing. Equal entries are not always repeated.

Experiments:
hERG = biological target: T1, hERG (Homo sapiens, UniProt Q12809); type: cell-based; settings: 10 μM
T1 construct: purchased DiscoverX (Eurofins) SafetyScan44
T1 sequence (Q12809 whole entry): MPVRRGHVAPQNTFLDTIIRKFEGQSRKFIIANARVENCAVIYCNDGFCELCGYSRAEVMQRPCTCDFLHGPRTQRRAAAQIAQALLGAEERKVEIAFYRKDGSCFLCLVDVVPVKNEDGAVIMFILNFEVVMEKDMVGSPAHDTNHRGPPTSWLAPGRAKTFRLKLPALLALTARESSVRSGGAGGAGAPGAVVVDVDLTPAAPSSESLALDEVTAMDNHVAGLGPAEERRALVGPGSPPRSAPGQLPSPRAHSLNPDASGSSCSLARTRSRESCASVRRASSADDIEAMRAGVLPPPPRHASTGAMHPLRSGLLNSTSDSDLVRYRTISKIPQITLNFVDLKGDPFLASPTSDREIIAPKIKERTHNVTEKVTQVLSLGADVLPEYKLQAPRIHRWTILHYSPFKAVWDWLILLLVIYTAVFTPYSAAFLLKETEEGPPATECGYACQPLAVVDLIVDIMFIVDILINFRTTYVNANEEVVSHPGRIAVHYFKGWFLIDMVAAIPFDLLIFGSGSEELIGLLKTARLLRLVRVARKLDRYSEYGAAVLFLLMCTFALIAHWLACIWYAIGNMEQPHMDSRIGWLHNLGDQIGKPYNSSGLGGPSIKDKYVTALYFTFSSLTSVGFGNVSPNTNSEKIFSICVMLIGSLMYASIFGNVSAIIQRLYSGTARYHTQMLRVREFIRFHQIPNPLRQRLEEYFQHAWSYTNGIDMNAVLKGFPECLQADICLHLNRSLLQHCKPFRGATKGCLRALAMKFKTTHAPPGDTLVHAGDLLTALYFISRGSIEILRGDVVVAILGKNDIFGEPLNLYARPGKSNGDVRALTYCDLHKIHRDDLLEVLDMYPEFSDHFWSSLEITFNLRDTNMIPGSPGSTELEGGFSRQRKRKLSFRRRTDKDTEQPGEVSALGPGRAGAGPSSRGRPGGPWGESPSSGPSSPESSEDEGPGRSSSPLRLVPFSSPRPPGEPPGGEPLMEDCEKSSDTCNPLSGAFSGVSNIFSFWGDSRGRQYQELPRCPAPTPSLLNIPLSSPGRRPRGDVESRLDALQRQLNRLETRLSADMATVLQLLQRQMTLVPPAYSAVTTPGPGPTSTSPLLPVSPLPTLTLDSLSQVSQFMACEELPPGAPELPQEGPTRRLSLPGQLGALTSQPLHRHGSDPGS
Description: (§1) SafetyScan44 assay was performed by DiscoverX according to service provider’s protocol.

[1] = Pharmacokinetics after intratracheal instillation; type: in vivo; settings: mouse
Description: Female Balb/c mouse (20–25 g bodyweight) were purchased from Nofer Institute (Lodz, Poland). Animals were given 0.3 mg/kg or 1 mg/kg single dose of CPL302-253 by intratracheal instillation. The compound was suspended in 0.2% DMSO in saline. 5 animals per time-point were sacrificed 10 min, 30 min, 1 h, 2 h, 4 h, 7 h and 12 h after compound administration. The blood was collected by heart puncture to K2EDTA containing tubes and plasma samples were prepared by centrifugation. The Bronchoalveolar Lavage Fluid (BALF) was collected by flushing the lungs 2 times with 1 ml of saline. The lungs were homogenized in 10% DMSO solution in water. 3ml of the solution were used for 1 g of lung tissue. The samples were purified using acetonitrile and concentration of CPL302-253 was measured by LC-MS/MS with internal standard. The concentration of the compound is given per ml of plasma and BALF or g of lung tissue.
LC-MS analysis of PK samples was performed using 1290 Infinity II UPLC (Agilent) with 6460 Triple Quad MS (Agilent) in the positive mode and MRM mode. […] Samples were eluted using a timed, linear gradient from 10% B at 0.3 min to 95% B at 1.5 min, then back to 10% at 2.5 min. The column was equilibrated for up to 5 min. The flow rate was 0.4 mL/min. The injection volume was 5 μL. Calibration curve was prepared in the range from 1 ng/mL to 2000 ng/mL by spiking 45 μL of plasma with 5 μL of concentrated standard solution. All plasma based standard solutions and studied samples (50 μL) were subsequently extracted with 150 μL of acetonitrile containing donepezil as internal standard and centrifuged to provide supernatant ready for analysis.

VEGFR2 = biological target: T2, VEGFR2 (Homo sapiens, UniProt P35968); test: SafetyScan44; type: cell-based; settings: 10 μM; Inhibitor mode
T2 construct: purchased DiscoverX (Eurofins) SafetyScan44
T2 sequence (P35968 20-1356): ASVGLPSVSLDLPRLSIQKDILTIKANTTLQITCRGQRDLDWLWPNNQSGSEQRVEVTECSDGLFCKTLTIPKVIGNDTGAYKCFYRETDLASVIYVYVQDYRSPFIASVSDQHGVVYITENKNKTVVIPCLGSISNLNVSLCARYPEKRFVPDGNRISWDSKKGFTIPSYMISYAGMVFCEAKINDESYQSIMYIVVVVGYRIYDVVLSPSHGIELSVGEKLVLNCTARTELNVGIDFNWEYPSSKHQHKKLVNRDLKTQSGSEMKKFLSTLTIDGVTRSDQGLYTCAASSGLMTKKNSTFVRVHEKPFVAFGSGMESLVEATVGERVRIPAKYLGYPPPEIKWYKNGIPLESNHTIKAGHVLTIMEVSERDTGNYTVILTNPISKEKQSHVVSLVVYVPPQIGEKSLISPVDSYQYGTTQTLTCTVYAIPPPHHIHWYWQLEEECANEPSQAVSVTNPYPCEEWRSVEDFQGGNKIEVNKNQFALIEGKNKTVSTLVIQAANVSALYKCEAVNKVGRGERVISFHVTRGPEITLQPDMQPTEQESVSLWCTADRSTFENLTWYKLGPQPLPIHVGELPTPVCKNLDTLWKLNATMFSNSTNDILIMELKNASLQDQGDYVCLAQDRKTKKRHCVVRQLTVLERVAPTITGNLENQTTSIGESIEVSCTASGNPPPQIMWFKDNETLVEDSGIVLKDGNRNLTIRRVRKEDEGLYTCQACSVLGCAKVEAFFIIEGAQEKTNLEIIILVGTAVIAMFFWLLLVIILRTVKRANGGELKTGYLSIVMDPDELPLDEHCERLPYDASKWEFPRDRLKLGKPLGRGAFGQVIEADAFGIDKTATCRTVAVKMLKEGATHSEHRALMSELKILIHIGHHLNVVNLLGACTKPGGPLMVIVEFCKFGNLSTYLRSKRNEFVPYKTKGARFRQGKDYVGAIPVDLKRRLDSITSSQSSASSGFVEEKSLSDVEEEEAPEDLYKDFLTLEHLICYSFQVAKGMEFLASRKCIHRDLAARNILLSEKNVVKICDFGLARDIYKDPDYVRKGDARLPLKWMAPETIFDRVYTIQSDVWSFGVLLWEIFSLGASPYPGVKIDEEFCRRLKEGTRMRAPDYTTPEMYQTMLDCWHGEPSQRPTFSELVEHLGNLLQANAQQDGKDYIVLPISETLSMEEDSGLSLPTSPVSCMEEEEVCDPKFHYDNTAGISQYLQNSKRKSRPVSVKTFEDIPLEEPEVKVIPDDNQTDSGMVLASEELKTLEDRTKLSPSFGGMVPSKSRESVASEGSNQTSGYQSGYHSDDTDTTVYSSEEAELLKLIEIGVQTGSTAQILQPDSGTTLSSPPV
Description: as §1

GR = biological target: T3, GR (Homo sapiens, UniProt P04150); test: SafetyScan44; type: cell-based; settings: 10 μM
T3 construct: purchased DiscoverX (Eurofins) SafetyScan44
T3 sequence (P04150 whole entry): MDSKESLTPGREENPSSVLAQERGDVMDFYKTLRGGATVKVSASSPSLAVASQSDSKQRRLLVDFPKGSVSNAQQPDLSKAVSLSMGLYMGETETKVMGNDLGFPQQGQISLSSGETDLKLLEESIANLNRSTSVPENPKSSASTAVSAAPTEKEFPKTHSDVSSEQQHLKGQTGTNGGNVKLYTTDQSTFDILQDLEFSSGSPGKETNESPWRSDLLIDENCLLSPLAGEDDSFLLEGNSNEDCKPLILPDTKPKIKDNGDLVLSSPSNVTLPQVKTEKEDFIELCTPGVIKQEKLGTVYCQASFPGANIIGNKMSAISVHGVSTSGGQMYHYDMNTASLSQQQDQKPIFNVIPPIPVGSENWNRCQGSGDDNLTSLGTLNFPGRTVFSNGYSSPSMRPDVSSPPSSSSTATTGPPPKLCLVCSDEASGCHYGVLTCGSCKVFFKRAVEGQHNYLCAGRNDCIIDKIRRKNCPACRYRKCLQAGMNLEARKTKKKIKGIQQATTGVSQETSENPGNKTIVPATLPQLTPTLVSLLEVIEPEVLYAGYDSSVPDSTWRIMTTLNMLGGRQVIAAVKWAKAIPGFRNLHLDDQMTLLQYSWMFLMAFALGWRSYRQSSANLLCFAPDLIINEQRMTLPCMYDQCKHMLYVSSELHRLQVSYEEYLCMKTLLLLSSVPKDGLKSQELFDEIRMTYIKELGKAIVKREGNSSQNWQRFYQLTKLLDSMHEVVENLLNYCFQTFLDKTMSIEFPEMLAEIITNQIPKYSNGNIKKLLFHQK
Description: as §1

PI3Kδ = biological target: T4, PI3Kδ (Homo sapiens, UniProt O00329); test: ADP-Glo Kinase Assay; type: biochemical
T4 construct: purchased Merck Millipore
Description: The potency and selectivity of CPL302-253 against different isotypes of class I PI3K were assessed using ADP-Glo Kinase Assay (Promega) according to manufacturer’s protocol. PI3Kα, PI3Kβ, PI3Kδ, PI3Kγ were purchased from Merck Millipore. The inhibition of examined kinases activity was evaluated by measuring their ability to converse ATP to ADP in the presence of decreasing doses of tested compound (from 400 μM to 0,00004 μM). Kinases were mixed with 1 mM PIP2:PS substrate (Phosphoinositol-4,5-bisphosphate (PIP2) lipid vesicles with phosphoserine (PS), Thermofisher Scientific) and 30 μM ATP in an assay buffer (50 mM HEPES pH 7.5,50 mM NaCl, 3 mM MgCl2, 25 μg/ml BSA). The mixture was incubated in the dark for 1 h at 25°C (PI3Kα and PI3Kδ) or at 30°C (PI3Kβ, PI3Kγ). Next ADP-Glo reagent 1 was added to stop the reaction and remove any remaining ATP. The samples were incubated for 40 min at 25°C. Subsequently the ADP-Glo reagent 2 was added and reactions were incubated for 40 min at 25°C. Finally, luminescence was assessed and the IC50 was calculated.

PI3Kγ = PI3Kγ (Homo sapiens, UniProt P48736); test: KINOMEScan competitive binding assay, Kd; set-up: purchased Discoverex (KINOMEscan service)
Description: (§2) The inhibitor-kinase binding affinity was assessed in KINOMEscan™ assay (Discoverex) according to service provider’s protocol. In brief, in this binding assay the studied compound in solution is incubated with DNA-tagged kinase and kinase active-site directed ligand bound to the beads. The compound competes for binding to kinase with the immobilized ligand. After incubation beads are removed from the solution and kinase bound to ligand is quantified by qPCR. The strength of compound binding is determined based on its ability to block kinase-ligand binding. 11-point 3-fold serial dilution of CPL302-253 was used in order to determine its binding constants (Kd) against different isotypes of class I PI3K. The single concentration of CPL302-253 was used in order to determine its specificity in abroad panel of 468 human kinases. The measure of compounds affinity to each kinase in the panel was the percentage of kinase activity inhibition by tested ligand in comparison to the control.

PI3Kβ = PI3Kβ (Homo sapiens, UniProt P42338); test: KINOMEScan competitive binding assay, Kd; set-up: purchased Discoverex (KINOMEscan service)
Description: as §2

PI3Kα = PI3Kα (Homo sapiens, UniProt P42336); test: KINOMEScan competitive binding assay, Kd; set-up: purchased Discoverex (KINOMEscan service)
Chain of PI3Kα (P42336 whole entry): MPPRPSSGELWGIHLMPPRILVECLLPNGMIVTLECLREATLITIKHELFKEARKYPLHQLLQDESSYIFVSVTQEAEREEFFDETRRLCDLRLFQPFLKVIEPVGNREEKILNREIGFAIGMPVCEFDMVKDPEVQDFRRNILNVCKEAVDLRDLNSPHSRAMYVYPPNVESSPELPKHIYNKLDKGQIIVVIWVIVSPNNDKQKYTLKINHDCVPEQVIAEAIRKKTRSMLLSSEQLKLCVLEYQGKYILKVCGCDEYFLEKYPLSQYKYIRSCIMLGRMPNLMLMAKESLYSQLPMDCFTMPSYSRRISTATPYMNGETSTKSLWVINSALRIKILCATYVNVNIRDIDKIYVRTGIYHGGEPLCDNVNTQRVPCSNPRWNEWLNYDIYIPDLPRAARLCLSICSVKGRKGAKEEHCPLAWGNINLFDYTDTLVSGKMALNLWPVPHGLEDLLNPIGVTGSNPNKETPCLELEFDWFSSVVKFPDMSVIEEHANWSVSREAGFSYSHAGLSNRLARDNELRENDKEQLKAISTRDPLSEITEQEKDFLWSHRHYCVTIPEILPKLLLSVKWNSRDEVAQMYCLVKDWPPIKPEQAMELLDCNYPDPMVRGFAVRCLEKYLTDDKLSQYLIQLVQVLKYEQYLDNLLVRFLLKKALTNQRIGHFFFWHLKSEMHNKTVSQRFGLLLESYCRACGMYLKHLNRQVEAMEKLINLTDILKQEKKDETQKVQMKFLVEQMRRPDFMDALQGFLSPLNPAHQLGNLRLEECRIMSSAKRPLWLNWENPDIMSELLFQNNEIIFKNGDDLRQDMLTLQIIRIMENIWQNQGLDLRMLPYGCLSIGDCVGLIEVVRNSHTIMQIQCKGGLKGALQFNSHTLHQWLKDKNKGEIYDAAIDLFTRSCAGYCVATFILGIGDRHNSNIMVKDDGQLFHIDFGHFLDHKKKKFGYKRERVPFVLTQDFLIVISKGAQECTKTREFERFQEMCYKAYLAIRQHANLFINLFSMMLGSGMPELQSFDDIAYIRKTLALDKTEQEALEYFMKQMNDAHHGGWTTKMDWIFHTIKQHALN
Description: as §2

neutrophils = test: Neutrophil ROS production; type: cell-based, human
Description: Neutrophils were isolated using EasySep Direct Human Neutrophil Isolation Kit (StemCell Technologies) from fresh whole blood of healthy donors according to manufacturer’s protocol. Cells were cultured in AIM V medium (Gibco). Cells were loaded for 30 min at 37°C in humidified incubator in the presence of 5% CO2 with DCFDA (2’,7’–dichlorofluorescein diacetate), a fluorescent ROS indicator. Subsequently neutrophils were treated for 15 min with CPL302-253 and dexamethasone. In the next step 20 ng/ml of human GM-CSF (StemCell Technologies) was added to prime cells. 15 min later 1 μg/ml LPS from E. coli O55:B5 (Sigma-Aldrich) was added to induce ROS generation. The ROS accumulation in the neutrophils was assessed on FACSCalibur 2 h after LPS stimulation.

CD8 T cells = test: CD8 T cell activation, IFNγ production; type: cell-based, human; settings: for IFNγ release (Fig 3C), single replicates: activated CD8 T cells, 48 h
Description: CD8 T cells were isolated from human frozen PBMC using EasySep Human CD8 T cell Isolation Kit (StemCell Technologies) according to manufacturer’s protocol and cultured in AIM V medium (Gibco). To cell culture different concentrations of CPL302-253 were added. The cells were activated with Human T Cell Activation/Expansion Kit (Miltenyibiotec) according to manufacturer’s protocol. IFNγ production was measured after 48 h of activation in culture supernatants using IFNγ Human Uncoated ELISA Kit (Invitrogen) according to manufacturer’s protocol.

CC(C)(C)N1CCN(Cc2cc3nc(-c4cncc5[nH]ccc45)cc(N4CCOCC4)n3n2)CC1 [CPL302-253]
% Response hERG Blocker (hERG): -2.7% | concentration in Plasma, single animals ([1]; 0.3 mg/kg intratracheal, time 2 h): 16.45 | concentration in the blood compared with the lungs ([1]; in vivo): two orders of magnitude lower | distribution after intratracheal administration ([1]; in vivo): exclusively accumulated in the lung tissue and BAL with minor penetration to the circulation | % Response VEGFR2 Inhibitor (VEGFR2): 30.7% | % Response GR Agonist (GR; Agonist mode): 0.0% | % Response GR Antagonist (GR; Antagonist mode): -5.6% | IC50 (PI3Kδ): 0.0122 µM | Kd (PI3Kγ): 4.8 µM | Kd (PI3Kβ): 0.39 µM | Kd (PI3Kα): 1.9 µM | neutrophils stained positively by ROS fluorescent indicator (Fig 4C), single replicates (neutrophils; GM-CSF 20 ng/ml and LPS 1 μg/ml, 2 h): 52 and 10 and 17 and 22 and 2 and 9 | ROS accumulation in neutrophils (neutrophils; GMCSF/LPS stimulation): reduced ROS accumulation | concentration at which IFNγ production was blocked (CD8 T cells; CD8 T cells after TCR engagement): 1 nM | IFNγ release (Fig 3C), single replicates (CD8 T cells; concentration 1 (unit not given)): 418.61 and 469.87 and 245.35 | IFNγ release (Fig 3C), single replicates (CD8 T cells; concentration 10 (unit not given)): 400.4 and 276.31 and 203.71 | IFNγ release (Fig 3C), single replicates (CD8 T cells; concentration 100 (unit not given)): 219.02 and 101.31 and 52.94 | IFNγ release (Fig 3C), single replicates (CD8 T cells; concentration 10000, first column (unit not printed)): 55.96 and 7.95 and 23.25 | IFNγ release (Fig 3C), single replicates (CD8 T cells; concentration 10000, second column (unit not printed)): 155.93 and 70.92 and 72.2
